In publication PMC7562719, “Discovery of a CNS penetrant small molecule SMN2 splicing modulator with improved tolerability for spinal muscular atrophy” (Scientific Reports, 2020):
Like-named read-outs stand apart in the source and are kept apart here.

What was measured:
[1] = system: ChAT protein; experiment: ChAT protein in iPSC-derived motor neurons (western blot); assay type: cell-based, human; details: iPSC-derived motor neurons (GM24468), 3 days
Description: GM03813 fibroblasts and GM24468-derived MNs were seeded at 1.5 × 10^4 and 4 × 10^4 cells/well in 96-well plates and were treated with TEC-1 or SMN-C3 for 72 h at the concentration of 0.01, 0.03, 0.1, 0.3, 1, or 3 µM. After 72 h exposure of compound, GM24468 derived MNs and GM03813 fibroblasts were washed once with D-PBS (-), lysed with RIPA buffer (Wako) containing cOmplete (Sigma-Aldrich) and PhosSTOP (Sigma-Aldrich). The lysates were spun at 15,000 rpm for 15 min at 4 °C, and the supernatants were collected. The protein concentration was quantified with BCA kit (Wako). The lysates, adjusted to have the same protein amount, were mixed with NuPAGE LDS sample buffer containing DTT and heated at 95 °C for 5 min. Except for HTT detection, each sample (2 µg total protein/lane) was loaded Perfect NT Gel 7.5–15% gel (DRC, Japan) and run at 150 V for 60–70 min with Tris/glycine/SDS running buffer (BIO-RAD, USA). The proteins were transferred from the gel to Immobilon-P PVDF Membrane (Millipore, USA) with a transfer solution comprising 10% methanol and 1 × Novex Tris-glycine transfer buffer at 25 V for 180–240 min using Criterion blotter (BIO-RAD). […] After washing with TBS-T four times, chemiluminescence signals were detected by Immunostar Zeta (Wako) and LAS-4000 (GE healthcare).

[2] = pharmacokinetic study in adult wild type FVB mice, oral; assay type: in vivo; details: for Kp / Cmax / MRT / Tmax: male, mouse
Description: TEC-1 was administered at doses of 2, 6, and 20 mg/kg for oral (suspended in 0.5% methyl cellulose aqueous solution) to male FVB mice (aged 8 weeks, 3 mice per a time point). After 0.5–120 h administration, blood and brain samples were collected. Blood samples with heparin were centrifuged for plasma collection. Brain samples were homogenized in saline 20% (w/v). The samples were deproteinized with acetonitrile and following by centrifugation, and the supernatants were analyzed by LC/MS/MS to obtain TEC-1 concentrations of the plasma and brain.

[3] = system: SMN2 splicing; experiment: qPCR of SMN transcripts in GM03813 cells exposed to TEC-1 and nusinersen; assay type: cell-based, human; details: GM03813, 24 h
Description: Transient transfection of GM03813 fibroblasts with nusinersen (final concentration 100 nM) was performed using Lipofectamine 2000. Cells were seeded 6 h prior to transfection at a density of 5 × 10^3 cells/well in 96-well plate. Transfection was performed according to manufacturer’s instructions. Cells were co-incubated either 0.1% DMSO or with TEC-1 at the concentration of 0.03, 0.1, 0.3, 1, and 3 µM for 24 h.

[4] = brain, 2 mg/kg oral single, adult FVB mice
[5] = brain, 6 mg/kg oral single, adult FVB mice
[6] = brain, 20 mg/kg oral single, adult FVB mice
[7] = plasma, 2 mg/kg oral single, adult FVB mice
[8] = plasma, 6 mg/kg oral single, adult FVB mice
[9] = plasma, 20 mg/kg oral single, adult FVB mice

Question: With `Cc1cn2nc(-c3nc4ccc(N5CCN(C)CC5)cc4c(=O)[nH]3)cc2c(C)n1` [TEC-1, 2-(4,6-dimethylpyrazolo[1,5-a]pyrazin-2-yl)-6-(4-methylpiperazin-1-yl)quinazolin-4(3H)-one] as the compound, how does the ChAT protein level [1] read?
Answer: increase the levels of choline acetyltransferase (ChAT)

Question: What about the “AUC0–24 h” value [2, 4] of the same compound?
Answer: 2234.1 ng･h/g

Question: And the “AUC0–120 h” value [2, 4]?
Answer: 2433.7 ng･h/g

Question: What about the “AUC0–24 h” value [2, 5] of the same compound?
Answer: 3956.7 ng･h/g

Question: What about the “AUC0–120 h” value [2, 5] of the same compound?
Answer: 8011.1 ng･h/g

Question: And the “AUC0–24 h” value [2, 6]?
Answer: 6322.1 ng･h/g

Question: And the “AUC0–120 h” value [2, 6]?
Answer: 29429.3 ng･h/g

Question: And the Kp ([2]; brain and plasma, other: intraperitoneal (juvenile) and oral (adult), juvenile (intraperitoneal) and adult (oral) FVB mice, read-out: Kp values (ratio of the compound in the brain and plasma))?
Answer: > 1

Question: And the Kp ([2]; brain/plasma, 2 mg/kg oral single, adult FVB mice, read-out: Kp (AUC0–120h ratio))?
Answer: 1.2

Question: What about the Kp ([2]; brain/plasma, 6 mg/kg oral single, adult FVB mice, read-out: Kp (AUC0–120h ratio)) of the same compound?
Answer: 1.2

Question: What about the Kp ([2]; brain/plasma, 20 mg/kg oral single, adult FVB mice, read-out: Kp (AUC0–120h ratio)) of the same compound?
Answer: 1.8

Question: And the Cmax [2, 4]?
Answer: 168 ng/g

Question: What about the MRT [2, 4] of the same compound?
Answer: 10.7 h

Question: What about the Tmax [2, 4] of the same compound?
Answer: 1 h

Question: And the Cmax [2, 5]?
Answer: 195 ng/g

Question: And the MRT [2, 5]?
Answer: 29.5 h

Question: And the Tmax [2, 5]?
Answer: 7 h

Question: What about the Cmax [2, 6] of the same compound?
Answer: 360 ng/g

Question: What about the MRT [2, 6] of the same compound?
Answer: 54.6 h

Question: And the Tmax [2, 6]?
Answer: 32 h

Question: What about the MRT [2, 7] of the same compound?
Answer: 10.7 h

Question: What about the Tmax [2, 7] of the same compound?
Answer: 3 h

Question: And the Cmax ([2]; plasma, 2 mg/kg oral single, adult FVB mice, mean, n = 3)?
Answer: 136 ng/mL

Question: What about the Cmax [2, 8] of the same compound?
Answer: 157 ng/mL

Question: What about the MRT [2, 8] of the same compound?
Answer: 33.1 h

Question: What about the Tmax [2, 8] of the same compound?
Answer: 3 h

Question: What about the Cmax [2, 9] of the same compound?
Answer: 222 ng/mL

Question: And the MRT [2, 9]?
Answer: 48.5 h

Question: What about the Tmax [2, 9] of the same compound?
Answer: 16 h

Question: And the “AUC0–24 h” value [2, 7]?
Answer: 1906.7 ng･h/mL

Question: And the “AUC0–120 h” value [2, 7]?
Answer: 2095.9 ng･h/mL

Question: What about the “AUC0–24 h” value [2, 8] of the same compound?
Answer: 3100.3 ng･h/mL

Question: What about the “AUC0–120 h” value [2, 8] of the same compound?
Answer: 6647.9 ng･h/mL

Question: What about the “AUC0–24 h” value [2, 9] of the same compound?
Answer: 4950.5 ng･h/mL

Question: And the “AUC0–120 h” value [2, 9]?
Answer: 16350.5 ng･h/mL

Question: And the “effect on the activity of nusinersen” value ([3]; TEC-1 at 1 and 3 µM with nusinersen 100 nM)?
Answer: significantly enhanced the effects of nusinersen

Question: And the “effect on the activity of nusinersen” value ([3]; low concentrations of TEC-1 with nusinersen 100 nM)?
Answer: did not inhibit the effects of nusinersen
